# In US20020137929A1, “1 - (3-heterocyclylphenyl) isothiourea, -isourea, -guanidine and -amidine herbicidal agents” (Intellectual Property Department, BASF Aktiengesellschaft, priority 1998, published 2002):
# Assays:
# ORYSAT (Rice, Tebonnet) [1] = experiment: Postemergence herbicidal evaluation; assay type: in vivo, Oryza sativa, (L.) Tebonnet; conditions: postemergence
# Outline: (§1)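 Two-week seedlings sprayed postemergence at 40 psi; formulation: 1:1 acetone/water, 0.5% TWEEN 20; application ≈0.0156–0.500 kg/ha. Greenhouse grow-out, then 0–9 visual scoring at 4–5 weeks.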
# [2] = tested on: GLXMAW (Soybean, Williams); experiment: Preemergence herbicidal evaluation; assay type: in vivo, Glycine max, (L.) Merr. cv Williams; conditions: rated 4-5 weeks after treatment
# Outline: (§2)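 Greenhouse preemergence test: seed-soil mix sown on ~1 inch soil; aqueous acetone spray at equivalent of ~0.0156–0.500 kg/ha; greenhouse-held and watered; scored 0–9 visually at 4–5 weeks.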
# ORYSAT (Rice, Tebonnet) [3] = experiment: Preemergence herbicidal evaluation; assay type: in vivo, Oryza sativa, (L.) Tebonnet; conditions: rated 4-5 weeks after treatment
# Outline: as §2
# [4] = tested on: SAGPY (Arrowhead (Pygmaea)); experiment: Preemergence weed control under flooded paddy conditions; assay type: in vivo, Sagittaria pygmaea; conditions: rated 3-4 weeks after treatment
# Outline: (§3)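 Values are visual 0-9 scores against a control for a preemergence application into paddy flood water at about 0.0313 to 0.500 kg/ha. Greenhouse duration was three to four weeks.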
# CASOB (Sicklepod) = experiment: Preemergence herbicidal evaluation; assay type: in vivo, Cassia obtusifolia; conditions: rated 4-5 weeks after treatment
# Outline: as §2
# AMBEL (Ragweed, Common) = experiment: Postemergence herbicidal evaluation; assay type: in vivo, Ambrosia artemisifolia; conditions: postemergence
# Outline: as §1
# GALAP (Galium) = experiment: Postemergence herbicidal evaluation; assay type: in vivo, Galium aparine; conditions: postemergence
# Outline: as §1
# ABUTH (Velvetleaf) [5] = experiment: Preemergence herbicidal evaluation; assay type: in vivo, Abutilon theophrasti; conditions: rated 4-5 weeks after treatment
# Outline: as §2
# [6] = tested on: IPOHE (Morningglory, Ivyleaf); experiment: Postemergence herbicidal evaluation; assay type: in vivo, Ipomoea hederacea; conditions: postemergence
# Outline: as §1
# [7] = tested on: TRZAWR (Wheat, Winter, cv Riband); experiment: Preemergence herbicidal evaluation; assay type: in vivo, Triticum aestivum; conditions: rated 4-5 weeks after treatment
# Outline: as §2
# ECHCG (Barnyardgrass) = experiment: Postemergence herbicidal evaluation; assay type: in vivo, Echinochloa crus-galli; conditions: postemergence
# Outline: as §1
# [8] = tested on: GLXMAW (Soybean, Williams); experiment: Postemergence herbicidal evaluation; assay type: in vivo, Glycine max, (L.) Merr. cv Williams; conditions: postemergence
# Outline: as §1
# SETVI (Foxtail, Green) = experiment: Postemergence herbicidal evaluation; assay type: in vivo, Setaria viridis; conditions: postemergence
# Outline: as §1
# ABUTH (Velvetleaf) [9] = experiment: Postemergence herbicidal evaluation; assay type: in vivo, Abutilon theophrasti; conditions: postemergence
# Outline: as §1
# CYPIR (Rice Flatsedge) = experiment: Preemergence weed control under flooded paddy conditions; assay type: in vivo, Cyperus iria; conditions: rated 3-4 weeks after treatment
# Outline: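 Seeds or propagules sown in top 0.5 cm of silt loam soil, flooded 1.5 to 3 cm above surface throughout. Compound in 50/50 v/v aqueous/acetone pipetted into flood water at about 0.0313 to 0.500 kg/ha. Visual 0-9 rating versus control after three to four weeks in greenhouse.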
# MOOVA (Monochoria) = experiment: as above; assay type: in vivo, Monochoria vaginalis; conditions: rated 3-4 weeks after treatment
# Outline: as §3
# [10] = tested on: CHEAL (Lambsquarters, Common); experiment: Postemergence herbicidal evaluation; assay type: in vivo, Chenopodium album; conditions: postemergence
# Outline: as §1
structure (smiles),measurement,setting,value
"COC(=O)C(C)OC(=O)CN1C(=O)CSC1=Nc1cc(-n2c(=O)cc(C(F)(F)F)n(C)c2=O)c(F)cc1Cl (stereo not shown) [Compound 116, 2-{{2-Chloro-5-[3,6-dihydro-3-methyl-2,6-dioxo-4-(trifluoromethyl)-1(2H)-pyrimidinyl]-4-fluorophenyl}imino}-4-oxo-3-thiazolidineacetic acid, ester with methyl lactate]",Herbicidal rating ORYSAT,"ORYSAT (Rice, Tebonnet) [1]; rate 0.0158 kg/ha",1.5
same,Herbicidal rating ORYSAT,"ORYSAT (Rice, Tebonnet) [1]; rate 0.0315 kg/ha",2.0
same,Herbicidal rating ORYSAT,"ORYSAT (Rice, Tebonnet) [1]; rate 0.0630 kg/ha",2.0
same,Preemergence herbicidal rating GLXMAW,[2]; rate 0.0156 kg/ha,1.0
same,Preemergence herbicidal rating GLXMAW,[2]; rate 0.0313 kg/ha,1.0
same,Preemergence herbicidal rating GLXMAW,[2]; rate 0.0625 kg/ha,0.0
same,Preemergence herbicidal rating GLXMAW,[2]; rate 0.1250 kg/ha,1.0
same,Preemergence herbicidal rating GLXMAW,[2]; rate 0.2500 kg/ha,2.0
same,Preemergence herbicidal rating ORYSAT,"ORYSAT (Rice, Tebonnet) [3]; rate 0.0156 kg/ha",0.0
same,Preemergence herbicidal rating ORYSAT,"ORYSAT (Rice, Tebonnet) [3]; rate 0.0313 kg/ha",0.0
same,Preemergence herbicidal rating ORYSAT,"ORYSAT (Rice, Tebonnet) [3]; rate 0.0625 kg/ha",0.0
same,Preemergence herbicidal rating ORYSAT,"ORYSAT (Rice, Tebonnet) [3]; rate 0.1250 kg/ha",0.0
same,Preemergence herbicidal rating ORYSAT,"ORYSAT (Rice, Tebonnet) [3]; rate 0.2500 kg/ha",1.0
same,"herbicidal effect rating, SAGPY",[4]; 0.0313 kg/ha,2.0
same,"herbicidal effect rating, SAGPY",[4]; 0.0625 kg/ha,3.0
same,SAGPY herbicidal effect rating,[4]; 0.1250 kg/ha,5.0
same,SAGPY herbicidal effect rating,[4]; 0.2500 kg/ha,6.0
same,Preemergence herbicidal rating CASOB,CASOB (Sicklepod); rate 0.0156 kg/ha,0.0
same,Preemergence herbicidal rating CASOB,CASOB (Sicklepod); rate 0.0313 kg/ha,0.0
same,Preemergence herbicidal rating CASOB,CASOB (Sicklepod); rate 0.0625 kg/ha,0.0
same,Preemergence herbicidal rating CASOB,CASOB (Sicklepod); rate 0.1250 kg/ha,0.0
same,Preemergence herbicidal rating CASOB,CASOB (Sicklepod); rate 0.2500 kg/ha,2.0
same,Herbicidal rating AMBEL,"AMBEL (Ragweed, Common); rate 0.0158 kg/ha",9.0
same,Herbicidal rating AMBEL,"AMBEL (Ragweed, Common); rate 0.0315 kg/ha",9.0
same,Herbicidal rating AMBEL,"AMBEL (Ragweed, Common); rate 0.0630 kg/ha",7.0
same,Herbicidal rating GALAP,GALAP (Galium); rate 0.0158 kg/ha,0.0
same,Herbicidal rating GALAP,GALAP (Galium); rate 0.0315 kg/ha,0.0
same,Herbicidal rating GALAP,GALAP (Galium); rate 0.0630 kg/ha,0.0
same,Preemergence herbicidal rating ABUTH,ABUTH (Velvetleaf) [5]; rate 0.0156 kg/ha,0.0
same,Preemergence herbicidal rating ABUTH,ABUTH (Velvetleaf) [5]; rate 0.0313 kg/ha,0.0
same,Preemergence herbicidal rating ABUTH,ABUTH (Velvetleaf) [5]; rate 0.0625 kg/ha,4.0
same,Preemergence herbicidal rating ABUTH,ABUTH (Velvetleaf) [5]; rate 0.1250 kg/ha,9.0
same,Preemergence herbicidal rating ABUTH,ABUTH (Velvetleaf) [5]; rate 0.2500 kg/ha,9.0
same,Herbicidal rating IPOHE,[6]; rate 0.0158 kg/ha,9.0
same,Herbicidal rating IPOHE,[6]; rate 0.0315 kg/ha,9.0
same,Herbicidal rating IPOHE,[6]; rate 0.0630 kg/ha,9.0
same,Preemergence herbicidal rating TRZAWR,[7]; rate 0.0156 kg/ha,0.0
same,Preemergence herbicidal rating TRZAWR,[7]; rate 0.0313 kg/ha,0.0
same,Preemergence herbicidal rating TRZAWR,[7]; rate 0.0625 kg/ha,0.0
same,Preemergence herbicidal rating TRZAWR,[7]; rate 0.1250 kg/ha,0.0
same,Preemergence herbicidal rating TRZAWR,[7]; rate 0.2500 kg/ha,1.0
same,Herbicidal rating ECHCG,ECHCG (Barnyardgrass); rate 0.0158 kg/ha,3.0
same,Herbicidal rating ECHCG,ECHCG (Barnyardgrass); rate 0.0315 kg/ha,1.0
same,Herbicidal rating ECHCG,ECHCG (Barnyardgrass); rate 0.0630 kg/ha,2.0
same,Herbicidal rating GLXMAW,[8]; rate 0.0158 kg/ha,5.5
same,Herbicidal rating GLXMAW,[8]; rate 0.0315 kg/ha,5.5
same,Herbicidal rating GLXMAW,[8]; rate 0.0630 kg/ha,5.5
same,Herbicidal rating SETVI,"SETVI (Foxtail, Green); rate 0.0158 kg/ha",1.0
same,Herbicidal rating SETVI,"SETVI (Foxtail, Green); rate 0.0315 kg/ha",3.0
same,Herbicidal rating SETVI,"SETVI (Foxtail, Green); rate 0.0630 kg/ha",3.0
same,Herbicidal rating ABUTH,ABUTH (Velvetleaf) [9]; rate 0.0158 kg/ha,9.0
same,Herbicidal rating ABUTH,ABUTH (Velvetleaf) [9]; rate 0.0315 kg/ha,9.0
same,Herbicidal rating ABUTH,ABUTH (Velvetleaf) [9]; rate 0.0630 kg/ha,9.0
same,"herbicidal effect rating, CYPIR",CYPIR (Rice Flatsedge); 0.0313 kg/ha,3.0
same,"herbicidal effect rating, CYPIR",CYPIR (Rice Flatsedge); 0.0625 kg/ha,6.0
same,CYPIR herbicidal effect rating,CYPIR (Rice Flatsedge); 0.1250 kg/ha,7.0
same,CYPIR herbicidal effect rating,CYPIR (Rice Flatsedge); 0.2500 kg/ha,7.0
same,"herbicidal effect rating, MOOVA",MOOVA (Monochoria); 0.0313 kg/ha,7.0
same,"herbicidal effect rating, MOOVA",MOOVA (Monochoria); 0.0625 kg/ha,9.0
same,MOOVA herbicidal effect rating,MOOVA (Monochoria); 0.1250 kg/ha,9.0
same,MOOVA herbicidal effect rating,MOOVA (Monochoria); 0.2500 kg/ha,9.0
same,Herbicidal rating CHEAL,[10]; rate 0.0158 kg/ha,4.0
same,Herbicidal rating CHEAL,[10]; rate 0.0315 kg/ha,5.0
same,Herbicidal rating CHEAL,[10]; rate 0.0630 kg/ha,9.0
